The record followed here is US20170354152A1, “PESTICIDAL COMPOSITION AND METHOD FOR CONTROLLING PESTS” (priority 2015, published 2017).

Holding throughout (format): in vivo
The subject of test [1] is southern root-knot nematode (Meloidogyne incognita). In words: Example 3: cup test, contaminated soil mixed with test agents, cucumber seeds, control value from root knot index. The following applies: compound alone, 26th day after seeding, =100−the root knot index. As for the experimental part: Soil contaminated with southern root-knot nematode (Meloidogyne incognita) was put in a 200 ml polypropylene cup, and predetermined amounts of test agents were added and mixed. Immediately after the addition of the test agents, the mixture was thoroughly mixed and then seeded with three seeds of cucumber. On the 26th day after seeding, the root knot index (0 to 100%) formed by nematode was visually determined.
As the test results, from the root knot index based on the root knot index in the non-treated area being 100, the control value (=100−the root knot index) was calculated, and the results are shown in Tables 3 and 4. Further, a theoretical value obtained by the Colby's formula (=Control value of compound A+Control value of compound B−((Control value of compound A×Control value of compound B)/100)) is also shown in brackets ( ) in Tables 3 and 4.

Test [2] has the same test system. The experiment in a line: Test Example 1: immersion of second stage juveniles in chemical solution, mobility inhibition. The following applies: compound alone, 24 hours, 25° C. As for the experimental part: About 50 larvae at second stage juveniles of southern root-knot nematode (Meloidogyne incognita) were immersed in a chemical solution diluted to a predetermined concentration with distilled water and kept for 24 hours in a constant temperature room at 25° C. […] From these values, the mobility inhibition rate was determined by the following formula.
Mobility inhibition rate (%)=[1-{(1-B/A)/(1-B′/A′)}]×100
Further, a theoretical value (%) of the mobility inhibition rate was calculated by the Colby's formula and is also shown in brackets ( ) in Table 1. The measured value (%) of the mobility inhibition rate is higher than the theoretical value (%), and thus, the composition of the present invention has a synergistic effect for controlling nematode.

For test [3] the test system is unchanged. In words: Example 2: pot test, contaminated soil mixed with test agents, tomato seedlings, root knot index. To be noted: compound alone, 35th day after transplantation, non-treated area being 100. The procedure: 1 Liter of sand soil obtained by mixing paddy steam sterilization soil, sand soil and soil contaminated with southern root-knot nematode (Meloidogyne incognita) in a volume ratio of 2:2:1, was put into a 1/1,000,000 ha pot, and predetermined amounts of test agents were added and mixed, Immediately after addition of the test agents, the mixture was sufficiently mixed, and then, seedlings of tomato (cultivar: kyoryoku bei ju) were transplanted. On the 35th day after transplantation, the root knot index (0 to 100%) formed by nematode was visually determined. The test was carried out by two replications.
Further, a theoretical value determined by the Colby's formula is shown in brackets ( ) in Table 2.

`O=S(=O)(CCC(F)=C(F)F)c1ncc(Cl)s1` [Fluensulfone, fluensulfone] registered a Control value in test [1] (200 g/ha) of 73.3. In addition, the “Mobility inhibition rate (%)” value in test [2] (0.31 ppm) was 36.4%; in test [2] (0.63 ppm), 41.7%; in test [2] (1.25 ppm), 48.1%; in test [2] (2.5 ppm), 54.7%; in test [2] (5 ppm), 69.1%. Also, in test [3] (2500 g/ha), the “Average root knot index” value is 25.7.

In the case of `CCOP(=O)(SC(C)CC)N1CCSC1=O` (stereo not drawn) [Fosthiazate, fosthiazate], the Control value in test [1] (125 g/ha) was determined as 70.0; in test [1] (188 g/ha) it was 73.3; in test [1] (250 g/ha), 83.3; in test [1] (375 g/ha), 90.0; in test [1] (500 g/ha) it was 90.0. Besides, the inhibition at 0.31 ppm in test [2] (Meloidogyne incognita, 0.31 ppm, read-out: Mobility inhibition rate (%)) came out at 0.2%. Also, in test [2] (Meloidogyne incognita, 0.63 ppm, read-out: Mobility inhibition rate (%)), the inhibition at 0.63 ppm was found to be 15%. In addition, the inhibition at 1.25 ppm in test [2] (Meloidogyne incognita, 1.25 ppm, read-out: Mobility inhibition rate (%)) stood at 22.7%. Further, the inhibition at 2.5 ppm in test [2] (Meloidogyne incognita, 2.5 ppm, read-out: Mobility inhibition rate (%)) worked out at 55.7%. Moreover, the inhibition at 5 ppm in test [2] (Meloidogyne incognita, 5 ppm, read-out: Mobility inhibition rate (%)) worked out at 96.2%. Moreover, in test [3] (3000 g/ha), the “Average root knot index” value is 11.4.

What is called inhibition is the relative decrease from the control value, in per cent.
